Calls of active or inactive are those of the source. The calls are words filed in the database; no cut-off is given here.
What was measured:
ECa-109 cell line [1] = test: Induction of apoptosis in human EC109 cells assessed as early apoptotic cells at 5 nM after 24 hrs by Annexin V-FITC/propidium iodide staining based flow cytometry (reference value: 1.3%); type: functional
Mus musculus [2] = test: Toxicity in nude mouse xenografted with human EC109 cells assessed as skin ulceration at 5 mg/kg measured after 21 days; type: organism-based; conditions: in vivo, 504 h
ECa-109 cell line [3] = test: Induction of apoptosis in human EC109 cells assessed as necrotic cells at 5 nM after 24 hrs by Annexin V-FITC/propidium iodide staining based flow cytometry (reference value: 1.6 %); type: functional
Mus musculus [4] = test: Toxicity in nude mouse xenografted with human EC109 cells assessed as body weight loss at 5 mg/kg measured after 21 days; type: organism-based; conditions: in vivo, 504 h
ECa-109 cell line [5] = test: Cytotoxicity against human EC109 cells assessed as reduction in cell viability after 24 hrs by MTT assay; type: functional, cell-based
ECa-109 cell line [6] = test: Induction of apoptosis in human EC109 cells assessed as nuclear shrinkage at 5 nM after 24 hrs by Hochest 33258 staining based fluorescent microscopic analysis; type: functional, cell-based
Mus musculus [7] = test: Toxicity in nude mouse xenografted with human EC109 cells assessed as pathological changes at 5 mg/kg measured after 21 days; type: organism-based; conditions: in vivo, 504 h
ECa-109 cell line [8] = test: Induction of apoptosis in human EC109 cells assessed as viable cells at 5 nM after 24 hrs by Annexin V-FITC/propidium iodide staining based flow cytometry (reference value: 96.1%); type: functional; conditions: ECa-109, 24 h, read-out: Activity
ECa-109 cell line [9] = test: Induction of apoptosis in human EC109 cells assessed as nuclear condensation at 5 nM after 24 hrs by Hochest 33258 staining based fluorescent microscopic analysis; type: functional, cell-based
ECa-109 cell line [10] = test: Induction of apoptosis in human EC109 cells assessed as late apoptotic cells at 5 nM after 24 hrs by Annexin V-FITC/propidium iodide staining based flow cytometry (reference value: 1%); type: functional
ECa-109 cell line [11] = test: Antitumor activity against human EC109 cells xenografted in nude mouse assessed as induction of necrosis at 5 mg/kg measured after 21 days by H and E staining based assay; type: functional, organism-based

CC(=O)O[C@H]1C(=O)[C@@]2(C)[C@H]([C@H](OC(=O)c3ccccc3)[C@]3(O)C[C@H](OC(=O)[C@H](O)[C@@H](NC(=O)c4ccccc4)c4ccccc4)C(C)=C1C3(C)C)[C@]1(OC(C)=O)CO[C@@H]1C[C@@H]2O [PACLITAXEL]
Activity (ECa-109 cell line [1]): 4.5% | Activity (Mus musculus [2]): Non-Toxic | Activity (ECa-109 cell line [3]): 0.5% | Activity (Mus musculus [4]): Non-Toxic | Activity (ECa-109 cell line [5]): Dose-dependent effect | Activity (ECa-109 cell line [6]): Active | Activity (Mus musculus [7]): Non-Toxic | viability at 0.005 µM (ECa-109 cell line [8]): 94.1% | Activity (ECa-109 cell line [9]): Active | Activity (ECa-109 cell line [10]): 0.9% | Activity (ECa-109 cell line [11]): Active

Reference: ChEMBL document CHEMBL4014287, “Jesridonin in combination with paclitaxel demonstrates synergistic anti-tumor activity in human esophageal carcinoma cells” (Bioorg Med Chem Lett, 2017)
